Experimental findings from ChEMBL document CHEMBL1201862, “PubChem BioAssay data set” (2004) are described below.

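These data come from cells grown in 96-well plates and exposed to compound for 48 hours at five concentrations. GI50 marks 50% less growth.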 The source made the active and inactive calls. No stated cut-off is given here; in the data, active = GI50 up to about 1.1 µM and inactive = higher.

Some test systems named below: KM12; HT-29; NCI-H522; SNB-19; SR; SK-MEL-2; UO-31; M14; RXF 393; HCT-15; PC-3; NCI-H460; SF-268; MDA-MB-231; CAKI-1; Hs-578T; NCI-H23; LOX IMVI; Malme-3M; OVCAR-4.
Test in all cases: inhibition of tumour cell growth, NCI panel, 48 h

In the case of `NC(=O)NN=C1Cc2ccccc2C1`, the GI50 with KM12, with HT-29, with NCI-H522, in the assay on SNB-19, with SR and with SK-MEL-2 was > 100 µM (inactive) throughout. The GI50 in the assay on UO-31 is > 100 µM (inactive); in the assay with M14, > 100 µM (inactive); with RXF 393 it was > 100 µM (inactive); in the assay with HCT-15, more than 100 µM; in the assay on PC-3, > 100 µM (inactive); in the assay with NCI-H460 it was > 100 µM (inactive). Further, the GI50 with SF-268, in the assay with MDA-MB-231, in the assay with CAKI-1, in the assay with Hs-578T, in the assay with NCI-H23 and with LOX IMVI was > 100 µM (inactive) each time. Further, the GI50 in the assay with Malme-3M and in the assay on OVCAR-4 was > 100 µM (inactive) throughout.

As for `CC12CC3(O)OC(O1)C1(COC(=O)c4ccccc4)C3CC21OC1OC(CO)C(O)C(O)C1O` (configuration not stated), the GI50 with KM12, with HT-29, with NCI-H522, in the assay on SNB-19, in the assay on SR and in the assay with SK-MEL-2 was > 100 µM (inactive) each time. Moreover, the GI50 in the assay with UO-31 is > 100 µM (inactive); in the assay with M14, > 100 µM (inactive); in the assay on RXF 393, > 100 µM (inactive); with HCT-15, more than 100 µM; in the assay with PC-3, > 100 µM (inactive); with NCI-H460 it was > 100 µM (inactive). The GI50 with SF-268, in the assay on MDA-MB-231, in the assay with CAKI-1, in the assay on Hs-578T, in the assay on NCI-H23 and with LOX IMVI was > 100 µM (inactive) throughout. In addition, the GI50 in the assay with Malme-3M and in the assay with OVCAR-4 was > 100 µM (inactive) each time.

Consider `CCOC(=O)CN1C(=O)c2ccc(NC(=O)C(=O)O)cc2S1(=O)=O`, for which the GI50 in the assay with KM12, in the assay on HT-29, with NCI-H522, in the assay with SNB-19, with SR and in the assay on SK-MEL-2 was > 100 µM (inactive) each time. For the same compound, the GI50 was > 100 µM (inactive) in the assay with UO-31; > 100 µM (inactive) with M14; > 100 µM (inactive) with RXF 393; more than 100 µM with HCT-15; > 100 µM (inactive) in the assay on PC-3; > 100 µM (inactive) in the assay on NCI-H460. Also, the GI50 in the assay on SF-268, in the assay on MDA-MB-231, in the assay with CAKI-1, with Hs-578T, in the assay with NCI-H23 and in the assay with LOX IMVI was > 100 µM (inactive) in each case. Also, the GI50 in the assay with Malme-3M and in the assay with OVCAR-4 was > 100 µM (inactive) in each case.

Take `CN1C(=O)C2C(=O)N(Cc3ccccc3)CC(=O)N2c2cccnc21` (configuration not stated): the GI50 in the assay with KM12, in the assay with HT-29, in the assay on NCI-H522, with SNB-19, in the assay on SR and with SK-MEL-2 was > 100 µM (inactive) in each case. The GI50 in the assay on UO-31 is > 100 µM (inactive); in the assay on M14, > 100 µM (inactive); with RXF 393, > 100 µM (inactive); in the assay with HCT-15 it was more than 100 µM; with PC-3, > 100 µM (inactive); in the assay on NCI-H460, > 100 µM (inactive). For the same compound, the GI50 with SF-268, in the assay on MDA-MB-231, with CAKI-1, with Hs-578T, with NCI-H23 and in the assay on LOX IMVI was > 100 µM (inactive) throughout. Further, the GI50 was 70.5 µM (inactive) with Malme-3M and > 100 µM (inactive) in the assay on OVCAR-4.

As for `c1ccc2c(OCC3CO3)ccc(OCC3CO3)c2c1` (configuration not stated), the GI50 was 4.14 µM (inactive) in the assay with KM12; 4.82 µM (inactive) with HT-29; 10.4 µM (inactive) with NCI-H522; 8.13 µM (inactive) in the assay with SNB-19; 0.343 µM (active) in the assay with SR; 1.61 µM (inactive) in the assay on UO-31. Besides, the GI50 in the assay on M14 is 3.38 µM (inactive); in the assay with RXF 393, 2.63 µM (inactive); in the assay on HCT-15, 3.85 µM; in the assay with PC-3, 4.76 µM (inactive); in the assay on NCI-H460 it was 3.42 µM (inactive); in the assay on SF-268, 0.571 µM (active). Besides, the GI50 was 10.5 µM (inactive) in the assay with MDA-MB-231; 1.74 µM (inactive) in the assay on CAKI-1; 5.32 µM (inactive) in the assay with Hs-578T; 2.51 µM (inactive) in the assay with NCI-H23; 0.515 µM (active) in the assay on LOX IMVI; 7.13 µM (inactive) in the assay with Malme-3M. Moreover, the GI50 in the assay on OVCAR-4 is 7.05 µM (inactive).

Turning to `CCOC(=O)c1c(NC(=O)c2ccccc2)c(C#N)c2n1CCCCC2`, the GI50 in the assay on KM12, in the assay on HT-29, in the assay on NCI-H522, in the assay with SNB-19, with SR and in the assay with UO-31 was > 100 µM (inactive) in each case. Further, the GI50 was > 100 µM (inactive) in the assay on M14; > 100 µM (inactive) in the assay on RXF 393; more than 100 µM with HCT-15; > 100 µM (inactive) in the assay with PC-3; > 100 µM (inactive) in the assay on NCI-H460; > 100 µM (inactive) in the assay on SF-268. The GI50 in the assay on MDA-MB-231, with CAKI-1, in the assay on Hs-578T, in the assay on NCI-H23, with LOX IMVI and with Malme-3M was > 100 µM (inactive) each time. In the assay on OVCAR-4, the GI50 was > 100 µM (inactive).

In the case of `Cc1ccc(/N=N/c2c(O)ccc3cc(S(=O)(=O)O)cc(S(=O)(=O)O)c23)cc1`, the GI50 with KM12, in the assay with NCI-H522, with SNB-19, in the assay on SR, with SK-MEL-2 and in the assay with UO-31 was > 100 µM (inactive) each time. In addition, the GI50 with M14 is > 100 µM (inactive); with RXF 393, > 100 µM (inactive); in the assay on HCT-15, more than 100 µM; in the assay with PC-3, > 100 µM (inactive); in the assay on NCI-H460, > 100 µM (inactive); with SF-268, > 100 µM (inactive). Besides, the GI50 in the assay on MDA-MB-231, in the assay with CAKI-1, in the assay on Hs-578T, with NCI-H23, in the assay with Malme-3M and with OVCAR-4 was > 100 µM (inactive) in each case.

Consider `COc1ccc(Nc2nc3cc(C(F)(F)F)ccc3nc2C(=O)O)cc1`, for which the GI50 is 24 µM (inactive) in the assay on KM12; 30.3 µM (inactive) with HT-29; 12.4 µM (inactive) in the assay on NCI-H522; 16 µM (inactive) with SNB-19; 11.1 µM (inactive) in the assay on SR; 14.5 µM (inactive) in the assay with SK-MEL-2. Also, the GI50 in the assay with UO-31 is 13.6 µM (inactive); in the assay with RXF 393, 11.9 µM (inactive); with HCT-15, 16.6 µM; with PC-3, 20.4 µM (inactive); in the assay with NCI-H460, 23.9 µM (inactive); in the assay on SF-268, 17.6 µM (inactive). Also, the GI50 in the assay on MDA-MB-231 is 31.6 µM (inactive); with CAKI-1, 33.2 µM (inactive); in the assay on Hs-578T it was 21.1 µM (inactive); with NCI-H23 it was 14.4 µM (inactive); with LOX IMVI it was 16.1 µM (inactive); with Malme-3M, 18.2 µM (inactive). In the assay on OVCAR-4, the GI50 was 27.3 µM (inactive).

In the case of `C(/Cc1ccc2c(c1)OCO2)=N\N=C1NCCN1`, the GI50 is > 100 µM (inactive) in the assay with KM12; 57.9 µM (inactive) with HT-29; > 100 µM (inactive) in the assay on NCI-H522; > 100 µM (inactive) in the assay with SNB-19; 73.5 µM (inactive) with SR; > 100 µM (inactive) in the assay with SK-MEL-2. Moreover, the GI50 in the assay on UO-31 is 42.1 µM (inactive); with M14, > 100 µM (inactive); in the assay on RXF 393 it was > 100 µM (inactive); in the assay with HCT-15 it was more than 100 µM; in the assay on PC-3, 71.3 µM (inactive); in the assay with NCI-H460, 47.8 µM (inactive). The GI50 in the assay with SF-268 is > 100 µM (inactive); in the assay on MDA-MB-231, > 100 µM (inactive); in the assay on Hs-578T, > 100 µM (inactive); with NCI-H23, > 100 µM (inactive); with LOX IMVI it was 41.2 µM (inactive); with Malme-3M, > 100 µM (inactive). Moreover, the GI50 in the assay on OVCAR-4 is > 100 µM (inactive).

For the compound `CCN(CC)CCC(=O)c1ccc(Cl)c(Cl)c1`, the GI50 with KM12 is 34.6 µM (inactive); in the assay on HT-29, 32.3 µM (inactive); in the assay with NCI-H522, 17.3 µM (inactive); in the assay with SNB-19, > 100 µM (inactive); in the assay on SR, 24.3 µM (inactive); in the assay with UO-31, 41.3 µM (inactive). Further, the GI50 in the assay with M14 was 42.3 µM (inactive); in the assay with RXF 393 it was 12.5 µM (inactive); in the assay on HCT-15, 34.6 µM; in the assay on PC-3, 32.1 µM (inactive); in the assay on NCI-H460 it was > 100 µM (inactive); in the assay on SF-268, 20.8 µM (inactive). The GI50 in the assay on MDA-MB-231 was > 10 µM (inactive); in the assay on Hs-578T it was 17.1 µM (inactive); in the assay with NCI-H23, > 10 µM (inactive); in the assay with LOX IMVI, 15 µM (inactive); with Malme-3M it was 24.7 µM (inactive); in the assay on OVCAR-4, 47.4 µM (inactive).
